Laboratory results as given in patent US20250353848A1, “HETEROCYCLIC PAD4 INHIBITORS” (Celgene Corporation, priority 2022, published 2025).

Experiments:
hPAD4 enzyme [1] = target: T1, hPAD4 enzyme (Homo sapiens, UniProt Q9UM07); test: RFMS Assay 1 (rapid-fire mass spectrum PAD4 inhibition assay, BAEE substrate); format: biochemical; details: 5 nM hPAD4 enzyme, 250 μM BAEE, 30 mins compound and enzyme preincubation at 37° C., 90 min enzyme/substrate reaction
Outline: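 Human PAD4 (5 nM) preincubated 30 min at 37 °C with compound (top 50 μM, 0.5% DMSO), then 250 μM BAEE for 90 min at 37 °C in pH 7.5 HEPES with 50 μM calcium, 5 μM TPEN, 1 mM DTT. Product derivatized with phenyl glyoxal; citrulline product quantified by RapidFire MS/MS MRM, normalized to internal standard.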

hPAD4 enzyme [2] = target: T1, hPAD4 enzyme; test: RFMS Assay 2 (rapid-fire mass spectrum PAD4 inhibition assay, peptide substrate); format: biochemical; details: 35 nM recombinant human PAD4, substrate TSTGGRQGSHH, room temperature for 30 minutes; read-out: human PAD4 (hPAD4) IC50, RFMS Assay 2
Outline: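 Recombinant human PAD4 (35 nM) reacted 30 min at room temperature with 500 µM peptide TSTGGRQGSHH in pH 7.4 HEPES, 200 mM NaCl, 2 mM CaCl2, 5 mM DTT, 1.2% DMSO. Quenched with formic acid; substrate and citrullinated product quantified by RapidFire MRM mass spectrometry.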

T1 sequence (Q9UM07 whole entry): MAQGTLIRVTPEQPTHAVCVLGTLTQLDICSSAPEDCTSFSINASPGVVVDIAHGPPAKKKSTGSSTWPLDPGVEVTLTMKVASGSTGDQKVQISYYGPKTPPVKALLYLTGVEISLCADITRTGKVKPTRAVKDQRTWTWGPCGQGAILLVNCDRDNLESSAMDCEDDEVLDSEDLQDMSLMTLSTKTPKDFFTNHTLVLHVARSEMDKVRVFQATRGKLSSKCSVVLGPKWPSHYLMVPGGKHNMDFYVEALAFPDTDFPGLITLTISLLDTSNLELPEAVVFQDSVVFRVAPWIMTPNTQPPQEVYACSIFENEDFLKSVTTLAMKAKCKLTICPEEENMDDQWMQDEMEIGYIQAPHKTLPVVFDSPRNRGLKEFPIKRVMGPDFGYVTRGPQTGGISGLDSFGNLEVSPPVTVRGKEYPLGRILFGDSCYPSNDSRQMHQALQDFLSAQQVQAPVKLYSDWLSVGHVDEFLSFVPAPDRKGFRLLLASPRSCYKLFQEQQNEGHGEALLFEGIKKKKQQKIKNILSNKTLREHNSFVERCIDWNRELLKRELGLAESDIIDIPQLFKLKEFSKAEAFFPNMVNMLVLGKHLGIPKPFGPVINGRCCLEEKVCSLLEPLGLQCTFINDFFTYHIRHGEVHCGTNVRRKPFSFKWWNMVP

Compound	IC50 (hPAD4 enzyme [1]) [nM]	IC50 (hPAD4 enzyme [2]) [nM]
Cn1c(-c2cc3ccnc(OC[C@@H]4CNC(=O)C4)c3n2CC2CC2)nc2cc3c(nc21)CCN(C[C@H](N)CF)C3=O [Example 82, 7-((S)-2-amino-3-fluoropropyl)-2-(1-(cyclopropylmethyl)-7-(((S)-5-oxopyrrolidin-3-yl)methoxy)-1H-pyrrolo[2,3-c]pyridin-2-yl)-3-methyl-3,5,6,7-tetrahydro-8H-imidazo[4,5-b][1,6]naphthyridin-8-one]	101 to 500	101 to 500
C[C@H](COc1cccc2cc(-c3nc4cc5c(nc4n3C)CCN(C[C@H](N)CF)C5=O)n(CC3CC3)c12)n1cnc(F)c1 [Example 85, 7-((S)-2-amino-3-fluoropropyl)-2-(1-(cyclopropylmethyl)-7-((R)-2-(4-fluoro-1H-imidazol-1-yl)propoxy)-1H-indol-2-yl)-3-methyl-3,5,6,7-tetrahydro-8H-imidazo[4,5-b][1,6]naphthyridin-8-one]	≤ 10	11 to 100
C[C@@H](COc1cccc2cc(-c3nc4cc5c(nc4n3C)CCN(C[C@H](N)CF)C5=O)n(CC3CC3)c12)n1cnc(F)c1 [Example 86, 7-((S)-2-amino-3-fluoropropyl)-2-(1-(cyclopropylmethyl)-7-((S)-2-(4-fluoro-1H-imidazol-1-yl)propoxy)-1H-indol-2-yl)-3-methyl-3,5,6,7-tetrahydro-8H-imidazo[4,5-b][1,6]naphthyridin-8-one]	≤ 10	11 to 100
[2H]C([2H])(Oc1cccc2cc(-c3nc4cc5c(nc4n3C)CCN(C[C@H](N)CF)C5=O)n(CC3CC3)c12)C([2H])([2H])n1ccnc1 [Example 95, (S)-2-(7-(2-(1H-imidazol-1-yl)ethoxy-1,1,2,2-d4)-1-(cyclopropylmethyl)-1H-indol-2-yl)-7-(2-amino-3-fluoropropyl)-3-methyl-3,5,6,7-tetrahydro-8H-imidazo[4,5-b][1,6]naphthyridin-8-one]	≤ 10	11 to 100
Cn1c(-c2cc3cccc(OCC(C)(C)n4ccnc4)c3n2CC2CC2)nc2cc3c(nc21)CCN(C[C@H](N)CF)C3=O [Example 96, (S)-2-(7-(2-(1H-imidazol-1-yl)-2-methylpropoxy)-1-(cyclopropylmethyl)-1H-indol-2-yl)-7-(2-amino-3-fluoropropyl)-3-methyl-3,5,6,7-tetrahydro-8H-imidazo[4,5-b][1,6]naphthyridin-8-one]	≤ 10	101 to 500

Other lines, results leading:

IC50 (hPAD4 enzyme [1]) [nM]	IC50 (hPAD4 enzyme [2]) [nM]	Compound
11 to 100	101 to 500	Cc1cncn1CCOc1cccc2cc(-c3nc4cc5c(nc4n3C)CCN(C[C@H](N)CF)C5=O)n(CC3CC3)c12 [Example 71, (S)-7-(2-amino-3-fluoropropyl)-2-(1-(cyclopropylmethyl)-7-(2-(5-methyl-1H-imidazol-1-yl)ethoxy)-1H-indol-2-yl)-3-methyl-3,5,6,7-tetrahydro-8H-imidazo[4,5-b][1,6]naphthyridin-8-one]
11 to 100	101 to 500	Cc1cn(CCOc2cccc3cc(-c4nc5cc6c(nc5n4C)CCN(C[C@H](N)CF)C6=O)n(CC4CC4)c23)cn1 [Example 72, (S)-7-(2-amino-3-fluoropropyl)-2-(1-(cyclopropylmethyl)-7-(2-(4-methyl-1H-imidazol-1-yl)ethoxy)-1H-indol-2-yl)-3-methyl-3,5,6,7-tetrahydro-8H-imidazo[4,5-b][1,6]naphthyridin-8-one]
≤ 10	11 to 100	Cn1c(-c2cc3ccnc(OCCn4ccnc4)c3n2CC2CC2)nc2cc3c(nc21)CCN(C[C@H](N)CF)C3=O [Example 84, (S)-2-(7-(2-(1H-imidazol-1-yl)ethoxy)-1-(cyclopropylmethyl)-1H-pyrrolo[2,3-c]pyridin-2-yl)-7-(2-amino-3-fluoropropyl)-3-methyl-3,5,6,7-tetrahydro-8H-imidazo[4,5-b][1,6]naphthyridin-8-one]
